Converted amounts (≈) assume the structure as drawn.
Key:
[1] = system: E. faecalis strain ATCC 29212; test: Broth microdilution MIC, E. faecalis; format: cell-based, Enterococcus faecalis
[2] = system: S. aureus strain ATCC 29213; test: Broth microdilution MIC, S. aureus; format: cell-based, Staphylococcus aureus
[3] = Enterococcus faecalis, ATCC29212, pH 5.8, E. faecalis 29212, pH 5.8
[4] = Enterococcus faecalis, ATCC29212, pH 7, E. faecalis 29212, pH 7
[5] = Staphylococcus aureus, ATCC29213
[6] = Staphylococcus aureus, ATCC29213, pH 5.8
[7] = Staphylococcus aureus, ATCC29213, pH 7

Compound	MIC [1, 3] [µg/mL]	MIC [1, 4] [µg/mL]	MIC [2, 5] [µg/mL]	MIC [2, 6] [µg/mL]	MIC [2, 7] [µg/mL]	increase in MIC in acidic environment ([1]; E. faecalis, acidic pH vs pH 7)	shift (increase) in MIC with exogenous folinic acid ([1]; E. faecalis, folinic acid in media vs none)	increase in MIC in acidic environment ([2]; S. aureus, acidic pH vs pH 7)	MIC ([1]; E. faecalis 29212, folinic acid 0.1 μg/mL added) [µg/mL]	MIC ([1]; E. faecalis 29212, pH 5.8) [µg/mL]	MIC ([1]; E. faecalis 29212, pH 7) [µg/mL]	MIC ([2]; S. aureus 29213, folinic acid 0.1 μg/mL added) [µg/mL]	MIC ([2]; S. aureus 29213, pH 5.8) [µg/mL]	MIC ([2]; S. aureus 29213, pH 7) [µg/mL]
CCC[C@H]1c2ccccc2C=NN1C(=O)/C=C/c1cc(Cc2cnc(N)nc2N)cc(OC)c1OC (racemic) [RAB, (S,E)-3-{5-[(2,4-diaminopyrimidin-5-yl)methyl]-2,3-dimethoxyphenyl}-1-[1-propylphthalazin-2(1H)-yl]-2-propen-1-one]	0.125 to 0.25 (≈ 0.257 to 0.514 µM)	0.06 (≈ 0.123 µM)	0.06 (≈ 0.123 µM)	0.25 (≈ 0.514 µM)	0.03 to 0.06 (≈ 0.0617 to 0.123 µM)	–	–	–	–	–	–	–	–	–
COc1cc(Cc2cnc(N)nc2N)cc(OC)c1OC [TMP, trimethoprim]	1 (≈ 3.44 µM)	0.125 to 0.25 (≈ 0.431 to 0.861 µM)	2 to 4 (≈ 6.89 to 13.8 µM)	8 (≈ 27.6 µM)	2 (≈ 6.89 µM)	2–3 fold	up to 1 fold	2–3 fold	–	–	–	–	–	–
CN[C@H](CC(C)C)C(=O)N[C@H]1C(=O)N[C@@H](CC(N)=O)C(=O)N[C@H]2C(=O)N[C@H]3C(=O)N[C@H](C(=O)N[C@H](C(=O)O)c4cc(O)cc(O)c4-c4cc3ccc4O)[C@H](O)c3ccc(c(Cl)c3)Oc3cc2cc(c3O[C@@H]2O[C@H](CO)[C@@H](O)[C@H](O)[C@H]2O[C@H]2C[C@](C)(N)[C@H](O)[C@H](C)O2)Oc2ccc(cc2Cl)[C@H]1O [VAN]	–	–	–	–	–	–	–	–	2 to 4	1 to 2	1 to 2	1 (≈ 0.69 µM)	1 (≈ 0.69 µM)	1 (≈ 0.69 µM)

Reference: paper PMC3985486 (Biochemistry, 2014)
